Data on three compounds can be found in ChEMBL document CHEMBL5131471, “Design, synthesis and mechanism studies of novel dual PARP1/BRD4 inhibitors against pancreatic cancer” (Eur J Med Chem, 2022).

Each structure is given as a SMILES string. Activity calls are given as the source filed them. No cut-off for these calls is given here.

Series [1] has as its system SW1990. Briefly: Induction of apoptosis in human SW1990 cells assessed as late apoptotic cells at 1 uM measured after 4 days in presence of 3 uM Olaparib by Annexin V-FITC and propidium iodide staining based flow cytometry (reference value: 7.23%). The series is classed as functional. Particulars: time 4 day. In general terms: Flow cytometry measures light scatter and fluorescence of single cells or particles in a stream.

In series [2] the test system is SW1990. Nature of the series: Effect on CDC25B gene expression in human SW1990 cells at 4 uM by Q-PCR analysis. The class given is functional, cell-based.
For series [3], the system named is SW1990. Nature of the series: Induction of apoptosis in human SW1990 cells assessed as necrotic cells at 1 uM measured after 4 days in presence of 3 uM Olaparib by Annexin V-FITC and propidium iodide staining based flow cytometry (reference value: 2.45%). The series is classed as functional. Particulars: time 4 day.
Series [4] relates to SW1990. Nature of the series: Induction of apoptosis in human SW1990 cells assessed as early apoptotic cells at 1 uM measured after 4 days in presence of 3 uM Olaparib by Annexin V-FITC and propidium iodide staining based flow cytometry (reference value: 1.62%). Particulars: time 4 day. The class given is functional.
Series [5] relates to SW1990. Briefly: Induction of cell cycle arrest in human SW1990 cells assessed as accumulation of cells at G2/M phase at 4 uM incubated for 4 days by propidium iodide staining based flow cytometry (reference value: 5.89%). The class given is functional. Particulars: time 4 day.
Series [6] has as its system SW1990. Nature of the series: Induction of DNA damage in human SW1990 cells assessed as increase in gammaH2AX expression at 1 uM incubated for 4 days in presence of Olaparib by DAPI staining based laser confocal microscopic analysis. Particulars: time 4.0 day. The series is classed as functional, cell-based.
In series [7] the test system is SW1990. Briefly: Effect on CDK6 gene expression in human SW1990 cells at 4 uM by Q-PCR analysis. The series is classed as functional, cell-based.
For series [8], the system named is SW1990. Nature of the series: Effect on CCND1 gene expression in human SW1990 cells at 4 uM by Q-PCR analysis. The class given is functional, cell-based.
Series [9] concerns SW1990. Briefly: Effect on BRCA1 gene expression in human SW1990 cells at 4 uM by Q-PCR analysis. The class given is functional, cell-based.
The test system of series [10] is SW1990. Briefly: Effect on BRCA2 gene expression in human SW1990 cells at 4 uM by Q-PCR analysis. The class given is functional, cell-based.
The subject of series [11] is SW1990. Briefly: Effect on Rad51 gene expression in human SW1990 cells at 4 uM by Q-PCR analysis. The series is classed as functional, cell-based.
In series [12] the test system is SW1990. Nature of the series: Effect on FOXO1 gene expression in human SW1990 cells at 4 uM by Q-PCR analysis. The series is classed as functional, cell-based.
Series [13] has as its system SW1990. Briefly: Effect on TOPBP1 gene expression in human SW1990 cells at 4 uM by Q-PCR analysis. The series is classed as functional, cell-based.
For series [14], the system named is SW1990. Nature of the series: Effect on ALDH1A1 gene expression in human SW1990 cells at 4 uM by Q-PCR analysis. The series is classed as functional, cell-based.
Series [15] deals with SW1990. Nature of the series: Effect on MDC1 gene expression in human SW1990 cells at 4 uM by Q-PCR analysis. The class given is functional, cell-based.
Series [16] has as its system SW1990. Nature of the series: Effect on CCND1 gene expression in human SW1990 cells at 1 uM in presence of Olaparib by Q-PCR analysis. The series is classed as functional, cell-based.
For series [17], the system named is SW1990. Briefly: Effect on FOXO1 gene expression in human SW1990 cells at 1 uM in presence of Olaparib by Q-PCR analysis. The class given is functional, cell-based.
In series [18] the test system is SW1990. Briefly: Effect on ALDH1A1 gene expression in human SW1990 cells at 1 uM in presence of Olaparib by Q-PCR analysis. The class given is functional, cell-based.
The species entered for series [19] is Mus musculus. Particulars: dose 15.0 mg/kg, route ip, time 28.0 day.
The nature of series [20]: Toxicity in nude mouse xenografted with human SW1990 cells assessed as kidney damage at 30 mg/kg, ip administered for 28 days by H and E staining based fluorescence microscopic analysis. Particulars: in vivo, 672 h, time 28 day. The series is classed as organism-based.
In series [21] the test system is SW1990. Nature of the series: Induction of apoptosis in human SW1990 cells assessed as necrotic cells at 1 uM measured after 4 days by Annexin V-FITC and propidium iodide staining based flow cytometry (reference value: 2.45%). The series is classed as functional. Particulars: time 4 day.
The test system of series [22] is Mus musculus. Nature of the series: Inhibition of CDK6 expression in nude mouse xenografted with human SW1990 cells at 30 mg/kg, ip measured after 4 days by Q-PCR analysis. The series is classed as functional, organism-based. Particulars: time 4.0 day. (A xenograft is tissue or cells of one species grown in another, often human tumour cells in immunodeficient mice.)

The subject of series [23] is Mus musculus. Nature of the series: Inhibition of CDK6 expression in nude mouse xenografted with human SW1990 cells at 30 mg/kg, ip measured after 4 days by Western blot analysis. The series is classed as functional, organism-based. Particulars: time 4.0 day.
Series [24] has as its system SW1990. Nature of the series: Induction of DNA damage in human SW1990 cells assessed as increase in tail DNA at 1 to 2 uM incubated for 4 days by comet assay. The series is classed as functional, cell-based. Particulars: dose 1-2 µM, time 4.0 day.
Series [25] concerns SW1990. Nature of the series: Inhibition of homologous recombinant repair in human SW1990 cells assessed as reversal of Olaparib-induced HEXIM1 expression at 1 to 2 uM after 4 days by Western blot analysis. The class given is functional, cell-based. Particulars: dose 1-2 µM, time 4.0 day.
Series [26] relates to SW1990. Nature of the series: Inhibition of homologous recombinant repair in human SW1990 cells assessed as reversal of Olaparib-induced c-Myc expression at 1 to 2 uM after 4 days by Western blot analysis. Particulars: dose 1-2 µM, time 4.0 day. The class given is functional, cell-based. For orientation: A western blot detects proteins with antibodies after separation by electrophoresis.

Series [27] relates to Mus musculus. Nature of the series: Inhibition of homologous recombinant repair in nude mouse xenografted with human SW1990 cells assessed as reversal of olaparib-induced TOPBP1 expression at 30 mg/kg, ip measured after 4 days by Western blot analysis. The series is classed as functional, organism-based. Particulars: time 4.0 day.
The test system of series [28] is SW1990. Briefly: Effect on BRCA1 gene expression in human SW1990 cells at 1 to 2 uM by Q-PCR analysis. The class given is functional, cell-based. Particulars: dose 1-2 µM.
The test system of series [29] is SW1990. Nature of the series: Effect on TOPBP1 gene expression in human SW1990 cells at 1 to 2 uM by Q-PCR analysis. The class given is functional, cell-based. Particulars: dose 1-2 µM.
Series [30] has as its system SW1990. Nature of the series: Downregulation of Ki67 expression in human SW1990 cells at 30 mg/kg, ip measured after 28 days by immuno histochemical staining based fluorescence microscopic analysis. The class given is functional, organism-based. Particulars: time 28.0 day.
Series [31] has as its system Mus musculus. Nature of the series: Inhibition of homologous recombinant repair in nude mouse xenografted with human SW1990 cells assessed as reversal of olaparib-induced FOXO1 expression at 30 mg/kg, ip measured after 4 days by Western blot analysis. The series is classed as functional, organism-based. Particulars: time 4.0 day.
Series [32] deals with Mus musculus. Nature of the series: Induction of DNA damage in nude mouse xenografted with human SW1990 cells assessed as increase in gammaH2AX expression at 30 mg/kg, ip incubated for 4 days by DAPI staining based laser confocal microscopic analysis. The series is classed as functional, organism-based. Particulars: time 4.0 day.
Series [33] in a line: Toxicity in nude mouse xenografted with human SW1990 cells assessed as lung damage at 45 mg/kg, ip administered for 28 days by H and E staining based fluorescence microscopic analysis. The series is classed as organism-based. Particulars: in vivo, 672 h, time 28 day.
Series [34] deals with Mus musculus. Briefly: Upregulation of CDC25B expression in nude mouse xenografted with human SW1990 cells at 45 mg/kg, ip measured after 4 days by Q-PCR analysis. The class given is functional, organism-based. Particulars: time 4.0 day.
Series [35] concerns SW1990. Nature of the series: Effect on CDK1 gene expression in human SW1990 cells at 6 uM by Q-PCR analysis. The series is classed as functional, cell-based.
Series [36] has as its system SW1990. Nature of the series: Effect on HEXIM1 gene expression in human SW1990 cells at 6 uM by Q-PCR analysis. The class given is functional, cell-based.
Series [37] concerns SW1990. Briefly: Effect on BRCA1 gene expression in human SW1990 cells at 6 uM by Q-PCR analysis. The series is classed as functional, cell-based.
For series [38], the system named is SW1990. Briefly: Induction of BRCA1 accumulation in nucleus of human SW1990 cells at 6 uM measured after 4 days by Western blot analysis. The series is classed as functional, cell-based. Particulars: time 4.0 day.
The test system of series [39] is Mus musculus. Briefly: Upregulation of BRD4 expression in nude mouse xenografted with human SW1990 cells at 45 mg/kg, ip measured after 28 days by DAPI staining based laser confocal microscopic analysis. Particulars: time 28.0 day. The series is classed as functional, organism-based.
Series [40] concerns SW1990. Briefly: Upregulation of BRD4 expression in human SW1990 cells at 6 uM measured after 4 days by Western blot analysis. The class given is functional, cell-based. Particulars: time 4.0 day.

With `Cc1sc2c(c1C)C(c1ccc(Cl)cc1)=N[C@@H](CC(=O)OC(C)(C)C)c1nnc(C)n1-2`, the Activity in the series with SW1990 [1] amounted to 34.5%; in the series with SW1990 [3], 5.76%; in the series with SW1990 [4], 3.07%; in the series on SW1990 [5] it was 5.51%. The outcome in the series with SW1990 [2], in the series on SW1990 [6], with SW1990 [7], with SW1990 [8], in the series on SW1990 [9] and with SW1990 [10] was Active. In addition, the result in the series on SW1990 [11], in the series with SW1990 [12], with SW1990 [13], in the series with SW1990 [14], in the series with SW1990 [15] and in the series with SW1990 [16] was Active. Moreover, the result with SW1990 [17] and in the series with SW1990 [18] was Active. In the series filed under Mus musculus [19], the inhibition result is “Active”.
On to `Cc1noc(C)c1-c1ccc2c(c1)C(c1ccccc1)N(Cc1nc3c(C(N)=O)cccc3[nH]1)C(=O)N2C` (stereo not given), for which the Activity entry in [20] was “Non-Toxic”; in the series on SW1990 [21], 3.62%. Besides, the inhibition entry in the series on Mus musculus [22], in the series on Mus musculus [23], with SW1990 [25], with SW1990 [26], in the series with Mus musculus [27] and with Mus musculus [31] was “Active” in each case. The outcome in the series with SW1990 [24], with SW1990 [28], with SW1990 [29], with SW1990 [30] and with Mus musculus [32] was Active.
For `O=C(c1cc(Cc2n[nH]c(=O)c3ccccc23)ccc1F)N1CCN(C(=O)C2CC2)CC1` [OLAPARIB], the Activity entry in [33] was “Non-Toxic”. In addition, the result in the series on Mus musculus [34], with SW1990 [35], in the series on SW1990 [36], in the series with SW1990 [37], in the series with SW1990 [38] and in the series on Mus musculus [39] was Active. Further, the outcome with SW1990 [40] was Active.
